Entries after “also recorded” stand apart in the source; their conditions may differ.
Columns and labels:
[1] = test system: Human Umbilical Vein Endothelial Cells (HUVEC); assay: Cell growth inhibition on primary HUVEC; assay type: cell-based
[2] = test system: NF-κB transactivation activity; assay: NF-κB luciferase reporter assay in 293T-luc cells; assay type: cell-based; conditions: 293T-luc, 12.5, 25, 50 µg/ml 4 h, TNFα 12 h
Method: 293T cells were transduced with a lentivirus carrying luciferase reporter driven by NF-κB enhancer found in immunoglobulin kappa light chain gene to prepare 293T-luc cells. The 293T-luc cells were pretreated with or without of complex 5 (12.5 µg/ml, 25 µg/ml, 50 µg/ml) for 4 h. The cells were later stimulated with TNFα (10 ng/ml) for 12 h. Cells were scraped, collected into 1.5 ml tubes and centrifuged at 1.5 k rpm 4°C for 5 min before removing the culture medium. Cell pellets were resuspended in 50 µl luciferase lysis buffer (100 mM Sodium Phosphate buffer, pH7.8; 8 mM MgCl2; 1% Triton X-100; 15% glycerol; 1 mM DTT). A total volume of 50 µl of luciferase substrate (containing 1 mM ATP; 0.25 mM luciferin; 1% BSA) was added to each well on a white 96-well plate containing 20 µg lysate. Luciferase activity was measured in 96-well plate with a VarioskanFlash microplate reader (Thermo Scientific).
Figure 6 Complex 5 inhibits NF-κB transactivation activity. (A) RAW264.7 cells pretreated with or without complex 5 for 4 h were treated with LPS for 4 h. The expression of TNFα, IFNβ, IL6 and IP10 were measured by QPCR. […] The expression of TNFα, IL8, CCL5, ICAM1, IL6 and A20 were measured by QPCR. […] The expression of IL8 and TNF were measured by QPCR. […] Cell lysates were prepared and the luciferase activities were measured. […]

[3] = test system: NF-κB p65 nuclear translocation; assay: NF-κB p65 immunofluorescence staining, TNFα-stimulated HeLa S3; assay type: cell-based, human; conditions: HeLa S3, 6.25 µg/ml pretreatment 4 h
Method: (§1) NF-κB Activation Kits (Thermo Scientific) were used as previously described. Cells were pretreated with compounds for 4 h before being stimulated with lipopolysaccharide (LPS) ortumour necrosis factor α (TNFα) for 1 h. Cells were then fixed and permeabilized before probing with NF-κB p65 antibody for 1 h. Staining solution (containing DyLight 488 Goat Anti-Rabbit and Hoechst dye) was then added and incubated for 1 h. The plate with stained cells was evaluated using a Cellomics ArrayScan HCS Reader (Cellomics, PA, USA). Data were captured, extracted and analyzed with ArrayScan II Data Acquisition and Data Viewer version 3.0 (Cellomics).
To examine whether complex 5 blocks the activation of NF-κB by another agonist, similar experiments were performed on HeLa S3 cells induced with TNFα. Similar to LPS-treated RAW264.7 cells, TNFα-induced translocation of NF-κB p65 in HeLa S3 cells (Figure 5A). […] TNF stimulation induced a rapid phosphorylation of IκBα in DMSO treated cells (within 5 minutes).
Figure 5 Complex 5 blocks TNFα-induced NF-κB nuclear translocation. Complex 5 inhibits TNFα -induced NF-B nuclear translocation. (A) NF-κB activation assay on TNFα treated HeLa S3 cells. Staining of Hoechst (nucleus) and NF-κB in HeLa S3 cells. […] Western blot signal intensities were quantified using ImageJ software. […]

[4] = test system: NF-κB target genes TNFα, IFNβ, IL6 and IP10; assay: Quantitative PCR of NF-κB target genes, LPS-treated RAW264.7; assay type: cell-based; conditions: RAW264.7, pretreated 4 h, LPS 4 h
Method: Cells pretreated with or without of complex 5 for 4 h were incubated with LPS or TNFα for 4 h. Total RNAs were isolated with Thermo Scientific GeneJET RNA Purification Kit. Complimentary DNAs were synthesized and Quantitative PCR was performed with 2× SYBR Green PCR Master mix (Thermo Scientific) and run on the Bio-Rad CFX 96 Real-Time PCR System. All data were then normalized to L32. The sequences of the primers are listed in Supporting Information Table S1.
To test if complex 5 inhibits NF-κB-mediated gene expression, we cultured RAW264.7 cells with or without complex 5 for 4 h before treating the cells with LPS for 4 h. Cells were collected for RNA isolation and real time PCR analysis (Figure 6A).
Figure 6 Complex 5 inhibits NF-κB transactivation activity. (A) RAW264.7 cells pretreated with or without complex 5 for 4 h were treated with LPS for 4 h. The expression of TNFα, IFNβ, IL6 and IP10 were measured by QPCR. (B) HeLa S3 cells pretreated with or without complex 5 for 4 h were stimulated with TNFα for 4 h. The expression of TNFα, IL8, CCL5, ICAM1, IL6 and A20 were measured by QPCR. (C) K562 or KCL22 cells pretreated with or without 50 µg/ml of complex 5 for 4 h were stimulated with 100 ng/ml TNFα for 2 h. The expression of IL8 and TNF were measured by QPCR. […] Cell lysates were prepared and the luciferase activities were measured. […]

[5] = test system: NF-κB p65 nuclear translocation; assay: NF-κB p65 immunofluorescence staining, LPS-stimulated RAW264.7; assay type: cell-based; conditions: RAW264.7, 25 µg/ml pre-treatment 4 h, LPS 1 h
Method: as §1
NF-κB acts as a central mediator of inflammatory responses and compounds that inhibit NF-κB activation are potential anti-inflammatory agents. To evaluate this, we performed immunofluorescence staining of NF-κB p65. […] In response to LPS stimulation, NF-κB p65 translocated from cytoplasm into the nucleus, implying NF-κB activation (Figure 3). […] Moreover, we observed that complex 6–8 required higher concentration (>50 µg/ml) to elicit similar inhibitory effect (data not shown).
Figure 3 Effect of N4-substituteted thiosemicarbazone complexes on LPS-induced NF-κB nuclear transloction in RAW264.7 macrophage cells. Staining of Hoechst (nucleus) and NF-κB in RAW264.7 cells. […]

[6] = Acute toxicity test in mice; assay type: in vivo, C57BL/6 mice
Source text: Next, we examined the anti-inflammatory effects of complex 5 in a carrageenan-induced paw edema mouse model. We first tested the acute toxicity effect of complex 5 in C57BL/6 mice.

HeLa S3 cells = assay: Cell proliferation (MTT) assay, HeLa S3
Method: A total number of 1.0×10^4 cells per well were seeded into a 96-well plate and incubated overnight at 37°C in 5% CO2. The next day, the cells were treated with a two-fold serial dilution of compounds. MTT assays were performed as described [27]. After 48 h, (4,5-dimethylthiazol-2-yl-2,5-diphenyltetrazoliumbromide) was added at 2 mg/ml. After 3 h of incubation at 37°C in 5% CO2, DMSO was added to dissolve the formazan crystals. The plates were then read in Chameleon multitechnology microplate reader (Hidex, Turku, Finland) at 570 nm absorbance. The ratio of the absorbance of treated cells to the absorbance of DMSO-treated control cells was determined as percentage cell viability.
To examine whether synthesized Ni(II) thiosemicarbazone ligands or Ni(II)-phosphine complexes were cytotoxic, we treated RAW264.7 (leukemic monocyte macrophage) and HeLa S3 (cervical adenocarcinoma) cells with these compounds for 48 h. The cell viability was determined with MTT assays [33].

NC1=[S+][Ni-2]2([P+](c3ccccc3)(c3ccccc3)c3ccccc3)[O]c3c(O)cccc3C=[N+]2N1.[Cl-] [complex 5, {2-[(2-Carbamothiolylhydrazin-1-ylidene-[kappa]2N1,S)methyl]-6-hydroxyphenolato-[kappa]O1}(triphenylphosphine-[kappa]P)nickel(II) chloride]
IC50 (cell growth inhibition) [1]: > 80 µg/mL
TNFα-induced NF-κB luciferase activity [2]: significantly reduced the luciferase activity in a dose-dependent manner
Inhibition of TNFα-induced NF-κB nuclear translocation [3]: significantly blocked; also recorded: sufficient to prevent
LPS-induced expression of TNFα, IFNβ, IL6 and IP10 (QPCR) [4]: abolished
Inhibition of LPS-mediated NF-κB p65 nuclear translocation [5]: efficiently inhibited; also recorded: marked inhibition
Safety judged from renal and liver functional tests ([6]; 125 mg/kg or 250 mg/kg oral): safe for consumption
Safety judged from renal and liver functional tests ([6]; 500 mg/kg oral): may be cytotoxic to the host
Acute toxicity observation ([6]; 14 day observation period): no overt abnormalities
Well tolerated dose ([6]; acute toxicity test): up to 250 mg/kg
Cell viability (HeLa S3 cells; HeLa S3, 6.25 µg/ml, 4 h treatment): > 90%
IC50 (cell viability, MTT) (HeLa S3 cells; HeLa S3 cells, 48 h treatment): 29.31 ± 1.10 µg/mL

— PMC4076215, “Nickel(II) Complex of Polyhydroxybenzaldehyde N4-Thiosemicarbazone Exhibits Anti-Inflammatory Activity by Inhibiting NF-κB Transactivation” (PLoS ONE, 2014)
